Laboratory results from patent US20160235752A1, “COMPOSITIONS, METHODS OF USE, AND METHODS OF TREATMENT” (THE UNIVERSITY OF NEW ORLEANS, priority 2013, published 2016).
Values after ≈ are worked out from the molar mass of the structure shown.

Experiments:
[1] = test system: Candida glabrata (ATCC no. 48435); assay: MIC determination by broth microdilution (NCCLS), visual scoring; format: cell-based; settings: for MIC80: Nakaseomyces glabratus, ATCC48435, read-out: MIC80 C. glabrata
Experimental: The antifungal activity of the 2,4,6-pyrimidinetrione analogs shown in Schemes 2-6 were evaluated in vitro using Candida albicans (ATCC no. 10231) and Candida glabrata (ATCC no 48435). All assays were done in accordance with NCCLS reference documents^29. The results of these screenings are summarized in Tables 1-9 as the minimal inhibitory concentrations that inhibited more than 80% fungal growth as compared to the positive controls in 1% DMSO and RPMI media. All MIC screens were done using a visual scoring method as opposed to spectroscopic methods of analysis, due to the physical properties of many of the compounds altering their absorbance spectra relative to the positive, negative and drug controls.
(§1) None of the compounds tested over the course of these studies were soluble in water and DMSO was used to dilute each compound tested. Master stock concentrations of all tested compounds were prepared to ensure that the maximum final concentration of DMSO was 1% or less. Subsequent 2-fold serial dilutions were made using sterile water to a final concentration of 1280-5.00 μg/ml. A final 10-fold dilution of each drug was made by aliquotting 0.1 mL of each drug dilution into 0.9 mL of fungal suspension in RPMI 1640 media with 10 mM HEPES buffer added (see methodology below), giving final concentrations tested in the range of 128-0.5 μg/ml.
(§2) Antifungal susceptibility studies and minimal inhibitory concentrations (MIC) values for Candida albicans (ATCC no. 10231) and Candida glabrata (ATCC no. 48435) were determined by the broth microdilution technique in accordance with NCCLS reference documents. Microdilution panels ranged from 0.5 to 128 μg/mL. All organisms were subcultured on Sabouraud agar and passaged to ensure purity and viability. The initiating inocula were prepared by picking 5-7 isolated colonies ˜1 mm in diameter from freshly prepared YM agar plates. Colonies were resuspended in sterile water, vortexed and the cell density was adjusted spectrophotometrically to the transmittance of a 0.5 McFarland standard at a wavelength of 530 nm, to yield a stock suspension of 1×10^6-5×10^6 cells/mL. The stock was allowed to hydrate for 30 minutes at room temperature. A working suspension was then made by diluting the stock 1:50 with RPMI 1640 media containing HEPES buffer. The working suspension was used for all assays. The plates were incubated at 35° C. for 48-72 hours in a humid atmosphere. Growth was scored visually. MIC values are defined as the lowest concentration of agent that prevents any discernible growth, ˜80% reduction of growth, as compared with drug-free control wells. All assays were run in parallel using either fluconazole or amphotericin B at the NCCLS recommended concentrations^29 as a drug control (Sigma-Aldrich).

[2] = test system: Candida albicans (ATCC no. 10231); assay: as above; format: cell-based; settings: for MIC80: Candida albicans, ATCC10231, read-out: MIC80 C. albicans
Experimental: The antifungal activity of the 2,4,6-pyrimidinetrione analogs shown in Schemes 2-6 were evaluated in vitro using Candida albicans (ATCC no. 10231) and Candida glabrata (ATCC no 48435). All assays were done in accordance with NCCLS reference documents^29.
as §1, with “Master” for “None of the compounds tested over the course of these studies were soluble in water and DMSO was used to dilute each compound tested. Master”
as §2

[3] = Table 2, 5-Arylidene-2,4,6-pyrimidinetriones
[4] = Table 5, Schiff Bases of 5-acylpyrimidinetriones
[5] = Table 1, 5-Acyl-2,4,6-pyrimidinetriones, >80% growth inhibition, RPMI, 1% DMSO
[6] = Table 4, 5,5-Dialkylated Pyrimidinetriones
[7] = Table 3, 5-Alkylated Pyrimidinetriones

For `COc1ccc(C=C2C(=O)N(C)C(=O)N(C)C2=O)c(OC)c1OC` [BA51], the “MIC80 C. glabrata” value [1, 3] was “— (none of the 5-acyl-2,4,6-pyrimidinetriones, 5-alkylated pyrimidinetriones or the 5,5-dialkylated pyrimidinetriones showed antifungal activity through 125 μg/mL)” and the “MIC80 C. albicans” value [2, 3] was “— (none of the 5-acyl-2,4,6-pyrimidinetriones, 5-alkylated pyrimidinetriones or the 5,5-dialkylated pyrimidinetriones showed antifungal activity through 125 μg/mL)”.
In the case of `O=C1NC(=O)N(c2ccccc2)C(=O)C1=Cc1ccc(O)cc1` [BA46], the “MIC80 C. glabrata” value [1, 3] is reported as “— (none of the 5-acyl-2,4,6-pyrimidinetriones, 5-alkylated pyrimidinetriones or the 5,5-dialkylated pyrimidinetriones showed antifungal activity through 125 μg/mL)” and the “MIC80 C. albicans” value [2, 3] is reported as “— (none of the 5-acyl-2,4,6-pyrimidinetriones, 5-alkylated pyrimidinetriones or the 5,5-dialkylated pyrimidinetriones showed antifungal activity through 125 μg/mL)”.
For `CC(=Nc1ccncc1)C1C(=O)NC(=O)NC1=O` [BA88], the “MIC80 C. glabrata” value [1, 4] was “— (none of the 5-acyl-2,4,6-pyrimidinetriones, 5-alkylated pyrimidinetriones or the 5,5-dialkylated pyrimidinetriones showed antifungal activity through 125 μg/mL)” and the “MIC80 C. albicans” value [2, 4] was “— (none of the 5-acyl-2,4,6-pyrimidinetriones, 5-alkylated pyrimidinetriones or the 5,5-dialkylated pyrimidinetriones showed antifungal activity through 125 μg/mL)”.
For `CN(C)c1ccc(C=C2C(=O)NC(=O)NC2=O)cc1` [BA53], the “MIC80 C. glabrata” value [1, 3] was “— (none of the 5-acyl-2,4,6-pyrimidinetriones, 5-alkylated pyrimidinetriones or the 5,5-dialkylated pyrimidinetriones showed antifungal activity through 125 μg/mL)” and the “MIC80 C. albicans” value [2, 3] was 62 µg/mL (≈ 239 µM).
With `CN1C(=O)C(C(=O)c2cccnc2)C(=O)N(C)C1=O` [BA17] the “MIC80 C. glabrata” value [1, 5] was “— (none of the 5-acyl-2,4,6-pyrimidinetriones, 5-alkylated pyrimidinetriones or the 5,5-dialkylated pyrimidinetriones showed antifungal activity through 125 μg/mL)” and the “MIC80 C. albicans” value [2, 5] was “— (none of the 5-acyl-2,4,6-pyrimidinetriones, 5-alkylated pyrimidinetriones or the 5,5-dialkylated pyrimidinetriones showed antifungal activity through 125 μg/mL)”.
With `CN1C(=O)C(C(=O)c2cc([N+](=O)[O-])cc([N+](=O)[O-])c2)C(=O)N(C)C1=O` [BA9] the “MIC80 C. glabrata” value [1, 5] was “— (none of the 5-acyl-2,4,6-pyrimidinetriones, 5-alkylated pyrimidinetriones or the 5,5-dialkylated pyrimidinetriones showed antifungal activity through 125 μg/mL)” and the “MIC80 C. albicans” value [2, 5] was “— (none of the 5-acyl-2,4,6-pyrimidinetriones, 5-alkylated pyrimidinetriones or the 5,5-dialkylated pyrimidinetriones showed antifungal activity through 125 μg/mL)”.
`CN1C(=O)C(=Cc2ccc(N(C)C)cc2)C(=O)N(C)C1=O` [BA54] was tested, and the “MIC80 C. glabrata” value [1, 3] was “— (none of the 5-acyl-2,4,6-pyrimidinetriones, 5-alkylated pyrimidinetriones or the 5,5-dialkylated pyrimidinetriones showed antifungal activity through 125 μg/mL)” and the “MIC80 C. albicans” value [2, 3] was “— (none of the 5-acyl-2,4,6-pyrimidinetriones, 5-alkylated pyrimidinetriones or the 5,5-dialkylated pyrimidinetriones showed antifungal activity through 125 μg/mL)”.
`C/C(=N\CCCCCC(=O)O)C1C(=O)NC(=O)NC1=O` [BA29, 6-{(E)-[1-(2,4,6-trioxohexahydropyrimidin-5-yl)ethylidene]amino}hexanoic acid] gave an MIC80 [1] of over 125 µg/mL and an MIC80 [2] of over 125 µg/mL.
`O=C1NC(=O)C(/C(=N/Nc2ccc([N+](=O)[O-])cc2[N+](=O)[O-])c2ccccc2)C(=O)N1` [BA30, 5-[(Z)-[2-(2,4-Dinitrophenyl)hydrazinylidene](phenyl)methyl]pyrimidine-2,4,6-trione] was tested, and the MIC80 [1] was over 125 µg/mL and the MIC80 [2] was over 125 µg/mL.
`CN(C)c1ccc(CC2(CCCc3ccccc3)C(=O)NC(=O)NC2=O)cc1` [BA72] was tested, and the “MIC80 C. glabrata” value [1, 6] was “— (none of the 5-acyl-2,4,6-pyrimidinetriones, 5-alkylated pyrimidinetriones or the 5,5-dialkylated pyrimidinetriones showed antifungal activity through 125 μg/mL)” and the “MIC80 C. albicans” value [2, 6] was “— (none of the 5-acyl-2,4,6-pyrimidinetriones, 5-alkylated pyrimidinetriones or the 5,5-dialkylated pyrimidinetriones showed antifungal activity through 125 μg/mL)”.
`CN1C(=O)C(/C=N/Nc2ccccc2)C(=O)N(C)C1=O` [BA73, 1,3-dimethyl-5-[(E)-(2-phenylhydrazinylidene)methyl]pyrimidine-2,4,6-trione] showed an MIC80 [1] of 2 µg/mL (≈ 7.29 µM) and an MIC80 [2] of 4 µg/mL (≈ 14.6 µM).
In the case of `O=C1NC(=O)C(C(=O)c2ccc([N+](=O)[O-])cc2)C(=O)N1` [BA6], the “MIC80 C. glabrata” value [1, 5] is reported as “— (none of the 5-acyl-2,4,6-pyrimidinetriones, 5-alkylated pyrimidinetriones or the 5,5-dialkylated pyrimidinetriones showed antifungal activity through 125 μg/mL)” and the “MIC80 C. albicans” value [2, 5] is reported as “— (none of the 5-acyl-2,4,6-pyrimidinetriones, 5-alkylated pyrimidinetriones or the 5,5-dialkylated pyrimidinetriones showed antifungal activity through 125 μg/mL)”.
`CN1C(=O)C(=Cc2ccc(O)cc2)C(=O)N(C)C1=O` [BA45] was tested, and the “MIC80 C. glabrata” value [1, 3] was “— (none of the 5-acyl-2,4,6-pyrimidinetriones, 5-alkylated pyrimidinetriones or the 5,5-dialkylated pyrimidinetriones showed antifungal activity through 125 μg/mL)” and the “MIC80 C. albicans” value [2, 3] was “— (none of the 5-acyl-2,4,6-pyrimidinetriones, 5-alkylated pyrimidinetriones or the 5,5-dialkylated pyrimidinetriones showed antifungal activity through 125 μg/mL)”.
Work on `C/C(=N\Nc1ccccc1)C1C(=O)NC(=O)NC1=O` [BA85, 5-[(1E)-1-(2-phenylhydrazinylidene)ethyl]pyrimidine-2,4,6-trione] yielded an MIC80 [1] of 2 µg/mL (≈ 7.68 µM) and an MIC80 [2] of 2 µg/mL (≈ 7.68 µM).
`C/C(=N\Nc1ccc([N+](=O)[O-])cc1[N+](=O)[O-])C1C(=O)N(C)C(=O)N(C)C1=O` [BA27, 5-{(1E)-1-[2-(2,4-dinitrophenyl)hydrazinylidene]ethyl}-1,3-dimethylpyrimidine-2,4,6-trione] was tested, and the MIC80 [1] was over 125 µg/mL and the MIC80 [2] was over 125 µg/mL.
In the case of `O=C1NC(=O)C(CCCC2CCCCC2)C(=O)N1` [BA63], the “MIC80 C. glabrata” value [1, 7] is reported as “— (none of the 5-acyl-2,4,6-pyrimidinetriones, 5-alkylated pyrimidinetriones or the 5,5-dialkylated pyrimidinetriones showed antifungal activity through 125 μg/mL)” and the “MIC80 C. albicans” value [2, 7] is reported as “— (none of the 5-acyl-2,4,6-pyrimidinetriones, 5-alkylated pyrimidinetriones or the 5,5-dialkylated pyrimidinetriones showed antifungal activity through 125 μg/mL)”.
With `CN1C(=O)C(CCCc2ccccc2)C(=O)N(C)C1=O` [BA67] the “MIC80 C. glabrata” value [1, 7] was “— (none of the 5-acyl-2,4,6-pyrimidinetriones, 5-alkylated pyrimidinetriones or the 5,5-dialkylated pyrimidinetriones showed antifungal activity through 125 μg/mL)” and the “MIC80 C. albicans” value [2, 7] was “— (none of the 5-acyl-2,4,6-pyrimidinetriones, 5-alkylated pyrimidinetriones or the 5,5-dialkylated pyrimidinetriones showed antifungal activity through 125 μg/mL)”.
`CCCCN1C(=O)NC(=O)C(C(=O)c2ccc(OC)cc2)C1=O` (centres unmarked) [BA16] was tested, and the “MIC80 C. glabrata” value [1, 5] was “— (none of the 5-acyl-2,4,6-pyrimidinetriones, 5-alkylated pyrimidinetriones or the 5,5-dialkylated pyrimidinetriones showed antifungal activity through 125 μg/mL)” and the “MIC80 C. albicans” value [2, 5] was “— (none of the 5-acyl-2,4,6-pyrimidinetriones, 5-alkylated pyrimidinetriones or the 5,5-dialkylated pyrimidinetriones showed antifungal activity through 125 μg/mL)”.
With `CN1C(=O)C(=CC=Cc2ccccc2)C(=O)N(C)C1=O` [BA43] the “MIC80 C. glabrata” value [1, 3] was 125 µg/mL (≈ 462 µM) and the “MIC80 C. albicans” value [2, 3] was 62 µg/mL (≈ 229 µM).
With `COc1ccc(C(=O)C2C(=O)N(C)C(=O)N(C)C2=O)cc1` [BA15] the “MIC80 C. glabrata” value [1, 5] was “— (none of the 5-acyl-2,4,6-pyrimidinetriones, 5-alkylated pyrimidinetriones or the 5,5-dialkylated pyrimidinetriones showed antifungal activity through 125 μg/mL)” and the “MIC80 C. albicans” value [2, 5] was “— (none of the 5-acyl-2,4,6-pyrimidinetriones, 5-alkylated pyrimidinetriones or the 5,5-dialkylated pyrimidinetriones showed antifungal activity through 125 μg/mL)”.
`O=C1NC(=O)C(/C=N/Nc2ccc([N+](=O)[O-])cc2[N+](=O)[O-])C(=O)N1` [BA24, 5-{(E)-[2-(2,4-Dinitrophenyl)hydrazinylidene]methyl}pyrimidine-2,4,6-trione] showed an MIC80 [1] of 125 µg/mL (≈ 372 µM) and an MIC80 [2] of over 125 µg/mL.
For `O=C1NC(=O)C(=Cc2cccc3ccccc23)C(=O)N1` [BA41], the “MIC80 C. glabrata” value [1, 3] was “— (none of the 5-acyl-2,4,6-pyrimidinetriones, 5-alkylated pyrimidinetriones or the 5,5-dialkylated pyrimidinetriones showed antifungal activity through 125 μg/mL)” and the “MIC80 C. albicans” value [2, 3] was 125 µg/mL (≈ 469 µM).
